Experimental data published in US20230183219A1, “CONDENSED SUBSTITUTED HYDROPYRROLES AS ANTAGONISTS OF THE MUSCARINIC ACETYLCHOLINE RECEPTOR M4” (Vanderbilt University, priority 2020, published 2023).
pIC50: −log10 of the molar value.

Target: T1, Human M4 (Homo sapiens, UniProt P08173)
T1 construct: Human or rat M4 cDNA, along with the chimeric G protein Gqi5, were transfected into Chinese hamster ovary (CHO-K1) cells; expressed in transfected cells; host or cells: CHO-K1 (Chinese hamster ovary, ATCC), stably co-expressing Gqi5
T1 sequence (P08173 1-479): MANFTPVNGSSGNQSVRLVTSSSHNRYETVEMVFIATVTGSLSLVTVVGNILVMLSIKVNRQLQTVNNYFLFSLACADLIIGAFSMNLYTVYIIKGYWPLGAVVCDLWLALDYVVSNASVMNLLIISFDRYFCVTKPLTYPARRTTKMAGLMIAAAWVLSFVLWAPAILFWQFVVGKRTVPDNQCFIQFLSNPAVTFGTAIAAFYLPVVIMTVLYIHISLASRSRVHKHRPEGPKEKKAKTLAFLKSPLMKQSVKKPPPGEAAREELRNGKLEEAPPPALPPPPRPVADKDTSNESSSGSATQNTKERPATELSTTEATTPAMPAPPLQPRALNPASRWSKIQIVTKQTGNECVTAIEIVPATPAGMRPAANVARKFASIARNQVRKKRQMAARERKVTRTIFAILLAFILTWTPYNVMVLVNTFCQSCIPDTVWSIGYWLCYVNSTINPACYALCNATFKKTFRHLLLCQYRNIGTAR
Assay: mAChR M4 cell-based functional assay (calcium flux, decrease of EC80 acetylcholine response)
Conditions: for remaining activity at 30 µM: read-out: Human M4 Emin; for pIC50: M4/Gqi5/CHO-K1 cells, decrease of response to EC80 acetylcholine
Method in brief: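 IC50 reflects inhibition of an EC80 acetylcholine calcium response, fitted by four-parameter logistic equation. Fluo-4-loaded M4/Gqi5 CHO-K1 cells received compound (10-point, 1:3 series) 2 s into the FDSS read, then EC20 acetylcholine at 143 s and EC80 at 268 s.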

SMILES	remaining activity at 30 µM (% ACh maximum at 30 μM) [%]	pIC50	Human M4 Emin (% ACh maximum at 30 μM) [%]
Cc1ccc(F)cc1-c1cc(C(F)(F)F)c(O[C@H]2C[C@@H]3CN(CC4CCOCC4)C[C@@H]3C2)nn1 [Example 132, (3aR,5s,6aS)-5-((6-(5-fluoro-2-methylphenyl)-4-(trifluoromethyl)pyridazin-3-yl)oxy)-2-((tetrahydro-2H-pyran-4-yl)methyl)octahydro-cyclopenta[c]pyrrole]	3	6.23	
Cc1ccc(C)c(-c2cc(C(F)(F)F)c(N[C@H]3C[C@@H]4CN(CC5CCOCC5)C[C@@H]4C3)nn2)c1 [Example 44, (3aR,5s,6aS)-N-(6-(2,5-dimethylphenyl)-4-(trifluoromethyl)pyridazin-3-yl)-2-((tetrahydro-2H-pyran-4-yl)methyl)octahydro-cyclopenta[c]pyrrol-5-amine]	2	7.28	
[2H]C([2H])(C1CCOCC1)N1C[C@H]2C[C@H](Nc3nnc(-c4cc(F)ccc4F)cc3C(F)(F)F)C[C@H]2C1 [Example 50, (3aR,5s,6aS)-N-(6-(2,5-difluorophenyl)-4-(trifluoromethyl)pyridazin-3-yl)-2-((tetrahydro-2H-pyran-4-yl)methyl-d2)octahydro-cyclopenta[c]pyrrol-5-amine]	3	6.84	
[2H]C([2H])([2H])N(c1cc(C(F)(F)F)c(-c2ccc3nn(C)cc3c2C)nn1)[C@H]1C[C@@H]2CN(CC3CCOCC3)C[C@@H]2C1 [Example 7, (3aR,5s,6aS)—N-(6-(2,4-dimethyl-2H-indazol-5-yl)-5-(trifluoromethyl)pyridazin-3-yl)-N-(methyl-d3)-2-((tetrahydro-2H-pyran-4-yl)methyl)octahydrocyclopenta [c]pyrrol-5-amine]			15
[2H][C@@]1(Nc2nnc(-c3cccc(F)c3)cc2C(F)(F)F)C[C@H]2CN(CC3CCOCC3)C[C@H]2C1 [Example 127, (3aR,5s,6aS)-N-(6-(3-fluoro-phenyl)-4-(trifluoromethyl)pyridazin-3-yl)-2-((tetrahydro-2H-pyran-4-yl)methyl)octahydro-cyclopenta[c]pyrrol-5-d-5-amine]	3	7.19	
CCOc1ccc(F)cc1-c1cc(C(F)(F)F)c(N[C@H]2C[C@@H]3CN(CC4CCOCC4)C[C@@H]3C2)nn1 [Example 73, (3aR,5s,6aS)-N-(6-(2-ethoxy-5-fluorophenyl)-4-(trifluoromethyl)pyridazin-3-yl)-2-((tetrahydro-2H-pyran-4-yl)methyl)octahydro-cyclopenta[c]pyrrol-5-amine]	3	6.70	
FC(F)(F)c1cc(-c2ccccc2)nnc1N[C@H]1C[C@@H]2CN(Cc3ccccn3)C[C@@H]2C1 [Example 102, (3aR,5s,6aS)-N-(6-phenyl-4-(trifluoro-methyl)pyridazin-3-yl)-2-(pyridin-2-ylmethyl)octahydro-cyclopenta[c]pyrrol-5-amine]	4	6.46	
COc1cc(C)c(-c2cc(C(F)(F)F)c(N[C@H]3C[C@@H]4CN(CC5CCOCC5)C[C@@H]4C3)nn2)cc1C [Example 52, (3aR,5s,6aS)-N-(6-(4-methoxy-2,5-dimethylphenyl)-4-(trifluoromethyl)pyridazin-3-yl)-2-((tetrahydro-2H-pyran-4-yl)methyl)octahydro-cyclopenta[c]pyrrol-5-amine]	3	6.94	
Cc1ccc(F)cc1-c1cc(C(F)(F)F)c(N[C@H]2C[C@@H]3CN(CC4COCC4C)C[C@@H]3C2)nn1 (stereo partly drawn) [Example 29, (3aR,5s,6aS)-N-(6-(5-fluoro-2-methylphenyl)-4-(trifluoromethyl)pyridazin-3-yl)-2-((4-methyltetrahydro-furan-3-yl)methyl)octahydro-cyclopenta[c]pyrrol-5-amine]	5	7.28	
Fc1cc(OC(F)F)ccc1-c1cc(C(F)(F)F)c(N[C@H]2C[C@@H]3CN(CC4CCOCC4)C[C@@H]3C2)nn1 [Example 83, (3aR,5s,6aS)-N-(6-(2-fluoro-4-(difluoromethoxy)phenyl)-4-(trifluoromethyl)pyridazin-3-yl)-2-((tetrahydro-2H-pyran-4-yl)methyl)octahydro-cyclopenta[c]pyrrol-5-amine]	3	6.39	
Fc1cc(F)c(F)c(-c2cc(C(F)(F)F)c(N[C@H]3C[C@@H]4CN(CC5CCOCC5)C[C@@H]4C3)nn2)c1 [Example 43, (3aR,5s,6aS)-2-((tetrahydro-2H-pyran-4-yl)methyl)-N-(4-(trifluoromethyl)-6-(2,3,5-trifluorophenyl)pyridazin-3-yl)octahydro-cyclopenta[c]pyrrol-5-amine]	3	6.54	
F[C@H]1CCN(c2cc(C(F)(F)F)c(N[C@H]3C[C@@H]4CN(CC5CCOCC5)C[C@@H]4C3)nn2)C1 [Example 139, (3aR,5s,6aS)-N-(6-((S)-3-fluoropyrrolidin-1-yl)-4-(trifluoromethyl)pyridazin-3-yl)-2-((tetrahydro-2H-pyran-4-yl)methyl)octahydro-cyclopenta[c]pyrrol-5-amine]	2	8.14	
Cn1cc2cc(-c3cnc(N[C@H]4C[C@@H]5CN(CCC(C)(C)C)C[C@@H]5C4)nc3)ccc2n1 [Example 14, (3aR,5s,6aS)-2-(3,3-dimethyl-butyl)-N-(5-(2-methyl-2H-indazol-5-yl)pyrimidin-2-yl)octahydro-cyclopenta[c]pyrrol-5-amine]	4	6.40	
CCc1ccc(F)c(-c2cc(C(F)(F)F)c(N[C@H]3C[C@@H]4CN(CC5CCOCC5)C[C@@H]4C3)nn2)c1 [Example 95, (3aR,5s,6aS)-N-(6-(5-ethyl-2-fluorophenyl)-4-(trifluoromethyl)pyridazin-3-yl)-2-((tetrahydro-2H-pyran-4-yl)methyl)octahydro-cyclopenta[c]pyrrol-5-amine]	3	6.03	
FC(F)(F)c1cc(-c2ccccc2)nnc1N[C@H]1C[C@@H]2CN(CC3CCOCC3)C[C@@H]2C1 [Example 65, (3aR,5s,6aS)-N-(6-phenyl-4-(trifluoromethyl)pyridazin-3-yl)-2-((tetrahydro-2H-pyran-4-yl)methyl)octahydro-cyclopenta[c]pyrrol-5-amine]	3	7.16	
Fc1ccc(F)c(-c2cc(C(F)(F)F)c(N[C@H]3C[C@@H]4CN(C[C@H]5COCCO5)C[C@@H]4C3)nn2)c1 [Example 70, (3aR,5s,6aS)-2-(((S)-1,4-dioxan-2-yl)methyl)-N-(6-(2,5-difluorophenyl)-4-(trifluoromethyl)pyridazin-3-yl)octahydro-cyclopenta[c]pyrrol-5-amine]	3	6.85	
Cc1ccc(F)cc1-c1cc(C(F)(F)F)c(N[C@H]2C[C@@H]3CN(CC4CCCOC4)C[C@@H]3C2)nn1 (stereo partly drawn) [Example 28, (3aR,5s,6aS)-N-(6-(5-fluoro-2-methylphenyl)-4-(trifluoromethyl)pyridazin-3-yl)-2-((tetrahydro-2H-pyran-3-yl)methyl)octahydro-cyclopenta[c]pyrrol-5-amine]	4	8.02	
Cc1ccc(F)cc1-c1cc(C(F)(F)F)c(N[C@H]2C[C@@H]3CN(CC4CCCCO4)C[C@@H]3C2)nn1 (single isomer, unassigned) [Example 118]	3	7.90	
Fc1ccc(C(F)(F)F)cc1-c1cc(C(F)(F)F)c(N[C@H]2C[C@@H]3CN(CC4CCOCC4)C[C@@H]3C2)nn1 [Example 89, (3aR,5s,6aS)-N-(6-(2-fluoro-5-(trifluoromethyl)phenyl)-4-(trifluoromethyl)pyridazin-3-yl)-2-((tetrahydro-2H-pyran-4-yl)methyl)octahydro-cyclopenta[c]pyrrol-5-amine]	4	6.20	
[2H]C([2H])([2H])OC([2H])([2H])c1ccc(F)cc1-c1cc(C(F)(F)F)c(N[C@H]2C[C@@H]3CN(CC4CCOCC4)C[C@@H]3C2)nn1 [Example 47, (3aR,5s,6aS)-N-(6-(5-fluoro-2-((methoxy-d3)methyl-d2)phenyl)-4-(trifluoromethyl)pyridazin-3-yl)-2-((tetrahydro-2H-pyran-4-yl)methyl)octahydro-cyclopenta[c]pyrrol-5-amine]	4	7.15	
Fc1ccc(C(F)(F)F)c(-c2cc(C(F)(F)F)c(N[C@H]3C[C@@H]4CN(CC5CCOCC5)C[C@@H]4C3)nn2)c1 [Example 45, (3aR,5s,6aS)-N-(6-(5-fluoro-2-(trifluoromethyl)phenyl)-4-(trifluoromethyl)pyridazin-3-yl)-2-((tetrahydro-2H-pyran-4-yl)methyl)octahydro-cyclopenta[c]pyrrol-5-amine]	3	7.45	
